Results: patent publication US9884846B2, “Crystalline salts of (S)-6-((1 acetylpiperidin-4-yl)amino)-N-(3-(3,4-dihydroisoquinolin-2(1H)-yl)-2-hydroxypropyl)pyrimidine-4-carboxamide” (GlaxoSmithKline Intellectual Property Development Limited, priority 2014, dated 2018)

How the values were obtained:
[1] = Solid-state stability on storage (degradation; physical changes by XRPD); assay type: physicochemical; conditions: 40° C./75% RH open vessel, and 50° C./Ambient closed vessel
[2] = Photolysis at 1×ICH solid state; assay type: physicochemical

| SMILES | degradation ([1]; after 4 weeks at 25° C./60% RH open vessel) [%] | physical changes by XRPD analysis ([1]; after 6 weeks at 25° C./60% RH open vessel) | degradation by photolysis [2] | form change by XRPD after photolysis [2] | physical changes by XRPD analysis ([1]; after 2 weeks at 25° C./60% RH open vessel) |
| --- | --- | --- | --- | --- | --- |
| CC(=O)N1CCC(Nc2cc(C(=O)NC[C@H](O)CN3CCc4ccccc4C3)ncn2)CC1.O=C(O)CCC(=O)O [Compound B, succinate salt of (S)-6-((1-acetylpiperidin-4-yl)amino)-N-(3-(3,4-dihydroisoquinolin-2(1H)-yl)-2-hydroxypropyl)pyrimidine-4-carboxamide] | ≤ 0.4 | No physical changes detected | Approximately 1.4% | no form change observed | – |
| CC(=O)N1CCC(Nc2cc(C(=O)NC[C@H](O)CN3CCc4ccccc4C3)ncn2)CC1.O=C(O)c1ccccc1 [Compound C, benzoate salt of (S)-6-((1-acetylpiperidin-4-yl)amino)-N-(3-(3,4-dihydroisoquinolin-2(1H)-yl)-2-hydroxypropyl)pyrimidine-4-carboxamide] | – | – | Approximately 1.6% | no form change observed | No physical changes detected |
